In ChEMBL document CHEMBL1201862, “PubChem BioAssay data set” (2004):
The source made the active and inactive calls.

Columns and labels:
[1] = target: Dual specificity tyrosine-phosphorylation-regulated kinase 1A (Rattus norvegicus, UniProt Q63470); type: biochemical, Homo sapiens
Genome polyprotein = Genome polyprotein (dengue virus type 2, UniProt P29990); experiment: flavivirus cap methylation enzyme inhibition – biochemical, confirmation dose response, primary screen (AID 588689); type: functional
[2] = target: Serine/threonine-protein phosphatase PP1-alpha catalytic subunit (Homo sapiens, UniProt P62136); experiment: inhibition of protein phosphatase 1 activity – biochemical, fluorescence, dose response (AID 2403);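 further: phosphatase turnover of OMFP into fluorescent 3-O-methylfluorescein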
[3] = target: T1, Replicative DNA helicase DnaB (Mycobacterium tuberculosis, UniProt P9WMR3); experiment: DnaB intein splicing inhibitors, dose response, biochemical, cell-free fluorescence (AID 449749); type: functional
T1 sequence (P9WMR3 whole entry): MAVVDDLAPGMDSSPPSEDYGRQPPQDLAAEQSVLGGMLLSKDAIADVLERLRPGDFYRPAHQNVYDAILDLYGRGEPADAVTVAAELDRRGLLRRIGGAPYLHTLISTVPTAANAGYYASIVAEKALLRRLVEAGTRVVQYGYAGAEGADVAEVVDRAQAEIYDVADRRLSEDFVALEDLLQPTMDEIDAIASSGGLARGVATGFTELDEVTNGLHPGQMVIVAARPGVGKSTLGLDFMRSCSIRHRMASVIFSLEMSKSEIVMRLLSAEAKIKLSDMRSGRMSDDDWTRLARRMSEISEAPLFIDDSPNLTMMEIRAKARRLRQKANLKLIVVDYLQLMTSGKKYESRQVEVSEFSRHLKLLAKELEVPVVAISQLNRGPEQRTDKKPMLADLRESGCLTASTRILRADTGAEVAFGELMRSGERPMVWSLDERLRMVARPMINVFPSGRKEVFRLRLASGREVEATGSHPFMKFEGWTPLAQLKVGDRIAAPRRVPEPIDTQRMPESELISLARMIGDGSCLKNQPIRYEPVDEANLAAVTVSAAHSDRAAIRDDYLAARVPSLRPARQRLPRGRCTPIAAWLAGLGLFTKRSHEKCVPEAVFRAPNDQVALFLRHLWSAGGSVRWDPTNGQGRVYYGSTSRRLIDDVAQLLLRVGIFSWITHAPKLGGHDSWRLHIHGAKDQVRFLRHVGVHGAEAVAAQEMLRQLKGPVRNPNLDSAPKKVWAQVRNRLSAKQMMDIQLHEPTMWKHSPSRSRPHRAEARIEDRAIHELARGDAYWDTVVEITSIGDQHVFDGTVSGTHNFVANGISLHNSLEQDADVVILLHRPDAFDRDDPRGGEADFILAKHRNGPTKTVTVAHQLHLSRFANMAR

[4] = target: Serine/threonine-protein phosphatase (Homo sapiens, UniProt Q9BPW0); experiment: Counterscreen for inhibitors of PP1: fluorescence-based biochemical high throughput dose response assay to identify inhibitors of Protein Phosphatase 5 (PP5). [Related pubchem assays: 2034 (Summary (PP5 inhibitors)), 1987 (PP5 inhibitors in singlate), 2235 (PP1 inhibitors in singlate)]
Protein RecA = target: T2, Protein RecA (Mycobacterium tuberculosis, UniProt P9WHJ3); experiment: Fluorescence Cell-Free Homogeneous Dose Retest to Identify Inhibitors of RecA-Intein Splicing Activity. [Related pubchem assays (depositor defined):AID2097, AID2223, AID489010, AID492950]; type: functional
T2 sequence (P9WHJ3 whole entry): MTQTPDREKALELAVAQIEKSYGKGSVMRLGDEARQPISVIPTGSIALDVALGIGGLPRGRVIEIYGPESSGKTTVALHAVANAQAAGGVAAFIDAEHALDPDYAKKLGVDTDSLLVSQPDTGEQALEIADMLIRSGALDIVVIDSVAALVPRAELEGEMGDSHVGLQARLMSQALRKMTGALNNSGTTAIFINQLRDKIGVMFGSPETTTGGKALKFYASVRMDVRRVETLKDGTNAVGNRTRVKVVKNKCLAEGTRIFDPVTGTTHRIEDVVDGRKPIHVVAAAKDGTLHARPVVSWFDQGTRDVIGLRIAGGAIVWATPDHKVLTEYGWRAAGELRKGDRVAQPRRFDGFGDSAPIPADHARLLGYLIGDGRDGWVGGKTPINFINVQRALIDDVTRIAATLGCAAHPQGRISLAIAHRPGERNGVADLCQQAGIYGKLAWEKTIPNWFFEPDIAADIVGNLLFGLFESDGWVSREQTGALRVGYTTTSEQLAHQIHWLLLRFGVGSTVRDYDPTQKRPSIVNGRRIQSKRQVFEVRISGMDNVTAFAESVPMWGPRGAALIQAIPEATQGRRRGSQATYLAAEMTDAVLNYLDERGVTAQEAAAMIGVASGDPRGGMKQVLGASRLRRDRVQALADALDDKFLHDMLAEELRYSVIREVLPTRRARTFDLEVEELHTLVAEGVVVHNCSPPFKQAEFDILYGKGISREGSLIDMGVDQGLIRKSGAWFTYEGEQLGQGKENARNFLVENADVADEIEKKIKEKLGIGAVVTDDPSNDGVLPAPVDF

[5] = target: Heat shock protein HSP 90-alpha (Homo sapiens, UniProt P07900); type: functional, organism-based
[6] = antiviral protection against BTV-induced cell death – arbovirus, BSR cells, confirmation (AID 1250); type: functional;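 further: protection from viral cytopathic effect measured as cell viability by ATP luminescence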
[7] = target: Transitional endoplasmic reticulum ATPase (Homo sapiens, UniProt P55072); experiment: p97 ATPase inhibitors, dose response, biochemical (AID 1534)
[8] = target: Transitional endoplasmic reticulum ATPase (Homo sapiens, UniProt P55072, C522A); experiment: C522A mutant p97 ATPase inhibitors, dose response, counter-screen for p97 inhibitor project, biochemical, luminescence (AID 1544)
[9] = target: Acyl-homoserine lactone acylase PvdQ (Pseudomonas aeruginosa (strain LESB58), UniProt Q9I194); experiment: PvdQ acylase enzyme activity blockers – biochemical, fluorescence, plate reader and imaging, cherry-picks, dose response (AID 493231)
Chaperone protein dnaK = Chaperone protein dnaK (Escherichia coli, UniProt C3TRK2); experiment: E. coli DnaK binders, calorimetric Kd – biophysical, isothermal titration calorimetry, beta-domain, full-length DnaK, orthogonal assay for DnaK modulator project, SAR follow-up (AID 1495)
[10] = target: T3, Dual specificity protein phosphatase 6 (Rattus norvegicus, UniProt Q64346); type: functional
T3 sequence (Q64346 whole entry): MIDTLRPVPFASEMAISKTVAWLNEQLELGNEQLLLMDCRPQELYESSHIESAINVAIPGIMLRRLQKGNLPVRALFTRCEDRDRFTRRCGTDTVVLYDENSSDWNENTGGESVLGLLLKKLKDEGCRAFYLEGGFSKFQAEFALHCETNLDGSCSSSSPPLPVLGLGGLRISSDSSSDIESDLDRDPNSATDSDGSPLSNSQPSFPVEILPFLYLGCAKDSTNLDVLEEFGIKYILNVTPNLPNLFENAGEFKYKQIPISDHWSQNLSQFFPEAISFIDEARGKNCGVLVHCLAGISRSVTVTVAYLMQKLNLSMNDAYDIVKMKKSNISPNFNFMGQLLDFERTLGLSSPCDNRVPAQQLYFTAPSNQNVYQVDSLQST

[11] = target: Heat shock cognate 71 kDa protein (Homo sapiens, UniProt P11142); experiment: In Vitro Hsc70 Dose Response Fluorescence Polarization Assay. [Related pubchem assays: 1072 ]
[12] = target: Heat shock 70 kDa protein 1A (Homo sapiens, UniProt P0DMV8); experiment: inhibition of Hsp70 binding activity – biochemical, fluorescence polarization, SAR follow-up (AID 1072)
[13] = target: T3, Dual specificity protein phosphatase 6
[14] = target: Glyceraldehyde-3-phosphate dehydrogenase (Homo sapiens, UniProt P04406)
[15] = target: T4, Alkaline phosphatase, tissue-nonspecific isozyme (Homo sapiens, UniProt P05186); experiment: potency against alkaline phosphatase TNAP – biochemical, luminescent, dose response, SAR follow-up (AID 1056)
T4 sequence (P05186 whole entry): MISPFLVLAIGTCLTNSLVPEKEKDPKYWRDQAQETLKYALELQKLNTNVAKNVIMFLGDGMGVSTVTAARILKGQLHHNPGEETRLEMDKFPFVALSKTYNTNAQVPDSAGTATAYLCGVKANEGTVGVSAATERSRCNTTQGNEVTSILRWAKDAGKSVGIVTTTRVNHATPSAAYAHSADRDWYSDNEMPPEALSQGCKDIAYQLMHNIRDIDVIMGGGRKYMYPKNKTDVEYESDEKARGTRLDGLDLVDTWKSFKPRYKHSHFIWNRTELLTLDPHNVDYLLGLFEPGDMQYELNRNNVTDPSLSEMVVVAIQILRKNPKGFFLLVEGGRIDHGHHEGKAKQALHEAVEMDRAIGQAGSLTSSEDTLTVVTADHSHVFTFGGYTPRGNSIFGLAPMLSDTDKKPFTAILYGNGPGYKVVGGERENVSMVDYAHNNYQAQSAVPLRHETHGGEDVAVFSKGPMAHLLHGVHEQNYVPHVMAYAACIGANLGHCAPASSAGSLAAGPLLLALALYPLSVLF

[16] = target: T5, Tyrosine-protein phosphatase non-receptor type 7 (Homo sapiens, UniProt P35236); type: functional
T5 sequence (P35236 whole entry): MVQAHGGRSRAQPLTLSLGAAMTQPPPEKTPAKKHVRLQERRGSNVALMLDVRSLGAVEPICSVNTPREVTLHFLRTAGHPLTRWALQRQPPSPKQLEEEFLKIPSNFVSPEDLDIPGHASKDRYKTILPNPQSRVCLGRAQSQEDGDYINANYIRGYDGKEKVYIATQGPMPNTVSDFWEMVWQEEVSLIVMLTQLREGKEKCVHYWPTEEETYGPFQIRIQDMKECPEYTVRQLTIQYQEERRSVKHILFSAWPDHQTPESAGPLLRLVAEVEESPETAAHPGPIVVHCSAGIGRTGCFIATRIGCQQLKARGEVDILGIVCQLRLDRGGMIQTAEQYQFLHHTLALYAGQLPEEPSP

[17] = target: Cyclin-dependent kinase 5/CDK5 activator 1 (Homo sapiens, UniProt Q00535); experiment: blockade of human CDK5 activity – biochemical, cherry-picked samples, set 2, dose response (AID 504545)

O=C(O)CC1OCC=C2CN3CCC45C6=CC(=O)C(O)=C([N+](=O)[O-])C6=NC4C1C2CC35 (stereo not given)
AC50 [1]: 3.17 µM (active) | IC50 (Genome polyprotein): > 100 µM (active) | IC50 [2]: 1.97 µM (active) | AC50 [3]: 6.67 µM (active) | IC50 [4]: > 0.276 µM (active) | EC50 (Protein RecA): 7.02 µM (active)

O=C(O)c1cccc(NN=C2c3ccccc3-c3ccccc32)c1
AC50 [5]: 8.32 µM (active) | IC50 [6]: 23.9 µM (active) | IC50 [7]: 50 µM (not active) | IC50 [8]: > 50 µM (not active)

O=C1N[C@@H](Cc2ccccc2)[C@@H](c2ccco2)O1
AC50 [9]: 7.07 µM (active)

O=C(NCc1ccccc1Br)c1cccs1
Kd (Chaperone protein dnaK): 39.3 µM (inactive)

O=C(O)c1ccc(N2C(=O)c3ccccc3C2=O)cc1
IC50 [10]: > 100 µM (inactive) | IC50 [11]: > 100 µM (not active) | IC50 [12]: > 100 µM (not active) | IC50 [13]: > 100 µM (inactive) | IC50 [14]: > 100 µM (not active) | IC50 [15]: > 100 µM (inactive) | IC50 [16]: > 100 µM (not active)

CC(C)n1cnc2c(Nc3ccc(F)c(Cl)c3)nc(NCCO)nc21
AC50 [17]: 3.36 µM (active)
